Results taken from ChEMBL document CHEMBL1201862, “PubChem BioAssay data set” (2004).
Where “and” joins values, the source holds several entries; their conditions need not be identical. Identical values can stand only once.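 Following 48 hours of exposure in 96-well plates, responses at five concentrations were used to interpolate endpoints linearly. Here, GI50 denotes the concentration required for 50% inhibition of growth.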 Calls of active or inactive are those of the source. Rule as the data show it: active = GI50 up to about 1.1 µM and inactive = higher.

Assays:
Experiment in all cases: inhibition of tumour cell growth, NCI panel, 48 h
M19-MEL = system: M19-MEL
COLO 205 = system: COLO 205
NCI-H460 = system: NCI-H460
HL-60 = system: HL-60
LXFL 529 = system: LXFL 529
KM-20L2 = system: KM-20L2
SF-268 = system: SF-268
RPMI-8226 = system: RPMI-8226
OVCAR-4 = system: OVCAR-4
SK-MEL-2 = system: SK-MEL-2
DMS-114 = system: DMS-114
SR = system: SR
UACC-62 = system: UACC-62
SF-539 = system: SF-539
SNB-75 = system: SNB-75
K562 = system: K562
NCI-H522 = system: NCI-H522
HT-29 = system: HT-29
NCI-H23 = system: NCI-H23
SK-MEL-28 = system: SK-MEL-28
ACHN = system: ACHN
SNB-78 = system: SNB-78
SK-OV-3 = system: SK-OV-3
KM12 = system: KM12
MOLT-4 = system: MOLT-4
CCRF-CEM = system: CCRF-CEM
HCT-116 = system: HCT-116
SNB-19 = system: SNB-19
MDA-MB-435 = system: MDA-MB-435
PC-3 = system: PC-3
SW-620 = system: SW-620
MCF7 = system: MCF7
UO-31 = system: UO-31
MDA-MB-231 = system: MDA-MB-231
SN12C = system: SN12C
Malme-3M = system: Malme-3M
OVCAR-3 = system: OVCAR-3
786-0 = system: 786-0
UACC-257 = system: UACC-257
DU-145 = system: DU-145
RXF 393 = system: RXF 393
EKVX = system: EKVX
SK-MEL-5 = system: SK-MEL-5
A549 = system: A549
HCT-15 = system: HCT-15
OVCAR-8 = system: OVCAR-8
Hs-578T = system: Hs-578T
OVCAR-5 = system: OVCAR-5
BT-549 = system: BT-549
TK-10 = system: TK-10
T47D = system: T47D
A498 = system: A498
U-251 = system: U-251
HCC 2998 = system: HCC 2998
MDA-N = system: MDA-N
IGROV-1 = system: IGROV-1
LOX IMVI = system: LOX IMVI
NCI/ADR-RES = system: NCI/ADR-RES
CAKI-1 = system: CAKI-1
SF-295 = system: SF-295
HOP-92 = system: HOP-92
NCI-H226 = system: NCI-H226
M14 = system: M14
HOP-62 = system: HOP-62

With `CCCSc1nc(-c2ccc(OC)cc2)c(C#N)c(=O)n1C1OC(COC(C)=O)C(OC(C)=O)C(OC(C)=O)C1OC(C)=O` (stereo not given) the GI50 (M19-MEL) was > 100 µM (inactive), the GI50 (COLO 205) was > 100 µM (inactive) and the GI50 (NCI-H460) was > 100 µM (inactive). For the same compound, the GI50 (HL-60) was > 100 µM (inactive), the GI50 (LXFL 529) was > 100 µM (inactive) and the GI50 (KM-20L2) was > 100 µM (inactive) and 54.6 µM (inactive). For the same compound, the GI50 (SF-268) was > 100 µM (inactive), the GI50 (RPMI-8226) was > 100 µM (inactive) and the GI50 (OVCAR-4) was > 100 µM (inactive). For the same compound, the GI50 (SK-MEL-2) was > 100 µM (inactive), the GI50 (DMS-114) was > 100 µM (inactive) and the GI50 (SR) was > 100 µM (inactive). The GI50 (UACC-62) was > 100 µM (inactive), the GI50 (SF-539) was > 100 µM (inactive) and the GI50 (SNB-75) was 42.3 µM (inactive). For the same compound, the GI50 (K562) was > 100 µM (inactive), the GI50 (NCI-H522) was > 100 µM (inactive) and the GI50 (HT-29) was > 100 µM (inactive) and 65.9 µM (inactive). The GI50 (NCI-H23) was > 100 µM (inactive), the GI50 (SK-MEL-28) was > 100 µM (inactive) and the GI50 (ACHN) was > 100 µM (inactive). For the same compound, the GI50 (SNB-78) was 99.3 µM (inactive), the GI50 (SK-OV-3) was > 100 µM (inactive) and the GI50 (KM12) was > 100 µM (inactive). For the same compound, the GI50 (MOLT-4) was > 100 µM (inactive) and the GI50 (CCRF-CEM) was > 100 µM (inactive).
With `Cn1cc(-c2n[nH]c(-c3ccc(Cl)cc3)nc2=O)c2ccccc21` the GI50 (HCT-116) was 2.12 µM (inactive), the GI50 (SNB-19) was 3.03 µM (inactive) and the GI50 (MDA-MB-435) was 184 nM (active). For the same compound, the GI50 (PC-3) was 2.3 µM (inactive), the GI50 (SW-620) was 1.91 µM (inactive) and the GI50 (MCF7) was 1.8 µM (inactive). For the same compound, the GI50 (COLO 205) was 2.07 µM (inactive), the GI50 (NCI-H460) was 2.33 µM (inactive) and the GI50 (UO-31) was 1.06 µM (active). For the same compound, the GI50 (HL-60) was 0.671 µM (active), the GI50 (SF-268) was 7.59 µM (inactive) and the GI50 (RPMI-8226) was 3.23 µM (inactive). The GI50 (OVCAR-4) was 15.1 µM (inactive), the GI50 (MDA-MB-231) was 15.5 µM (inactive) and the GI50 (SN12C) was 6.34 µM (inactive). For the same compound, the GI50 (Malme-3M) was 3.44 µM (inactive), the GI50 (SK-MEL-2) was 3.4 µM (inactive) and the GI50 (OVCAR-3) was 979 nM (active). For the same compound, the GI50 (786-0) was 3.38 µM (inactive), the GI50 (UACC-257) was 7.53 µM (inactive) and the GI50 (DU-145) was 3.2 µM (inactive). For the same compound, the GI50 (SR) was 0.774 µM (active), the GI50 (RXF 393) was 2.4 µM (inactive) and the GI50 (EKVX) was 4.41 µM (inactive). For the same compound, the GI50 (UACC-62) was 1.73 µM (inactive), the GI50 (SF-539) was 1.08 µM (active) and the GI50 (SNB-75) was 3.11 µM (inactive). The GI50 (SK-MEL-5) was 1.35 µM (inactive), the GI50 (A549) was 3.94 µM (inactive) and the GI50 (HCT-15) was 1100 nM. The GI50 (OVCAR-8) was 5.62 µM (inactive), the GI50 (Hs-578T) was 2.76 µM (inactive) and the GI50 (OVCAR-5) was 4.34 µM (inactive). For the same compound, the GI50 (K562) was 0.544 µM (active), the GI50 (NCI-H522) was 0.959 µM (active) and the GI50 (BT-549) was 5.57 µM (inactive). For the same compound, the GI50 (HT-29) was 2.19 µM (inactive), the GI50 (TK-10) was 11.8 µM (inactive) and the GI50 (T47D) was 9.59 µM (inactive). The GI50 (A498) was 2.04 µM (inactive), the GI50 (NCI-H23) was 4.28 µM (inactive) and the GI50 (U-251) was 2.31 µM (inactive). For the same compound, the GI50 (HCC 2998) was 1.57 µM (inactive), the GI50 (SK-MEL-28) was > 71.1 µM (inactive) and the GI50 (MDA-N) was 399 nM (active). The GI50 (IGROV-1) was 4.58 µM (inactive), the GI50 (ACHN) was 7.76 µM (inactive) and the GI50 (LOX IMVI) was 5.64 µM (inactive). The GI50 (NCI/ADR-RES) was 1.69 µM (inactive), the GI50 (CAKI-1) was 1.36 µM (inactive) and the GI50 (SK-OV-3) was 4.31 µM (inactive). For the same compound, the GI50 (KM12) was 0.776 µM (active), the GI50 (MOLT-4) was 1.6 µM (inactive) and the GI50 (SF-295) was 1.43 µM (inactive). The GI50 (CCRF-CEM) was 1.77 µM (inactive), the GI50 (HOP-92) was 12.3 µM (inactive) and the GI50 (NCI-H226) was 3.84 µM (inactive). For the same compound, the GI50 (M14) was 3.18 µM (inactive) and the GI50 (HOP-62) was 5.36 µM (inactive).
